Measured values taken from patent US10231954B2, “Neurodegenerative therapies” (LYTIX BIOPHARMA AS, priority 2014, dated 2019).
Where two headings read alike, the source gives them in different places.

What was measured:
Type in all cases: biochemical
MEKK1 = MEKK1 (Homo sapiens, UniProt Q13233); test: Kinase profiling MEKK1; details: for remaining activity at 100 µM: read-out: residual kinase activity, MEKK1
Excerpt: (§1) Any value less that 25 is considered to be highly significant inhibition.

TAO1 = biological target: T1, TAO1 (Homo sapiens, UniProt Q7L7X3); test: Kinase profiling TAO1; details: for remaining activity at 100 µM: read-out: residual kinase activity, TAO1
T1 sequence (Q7L7X3 1-1001): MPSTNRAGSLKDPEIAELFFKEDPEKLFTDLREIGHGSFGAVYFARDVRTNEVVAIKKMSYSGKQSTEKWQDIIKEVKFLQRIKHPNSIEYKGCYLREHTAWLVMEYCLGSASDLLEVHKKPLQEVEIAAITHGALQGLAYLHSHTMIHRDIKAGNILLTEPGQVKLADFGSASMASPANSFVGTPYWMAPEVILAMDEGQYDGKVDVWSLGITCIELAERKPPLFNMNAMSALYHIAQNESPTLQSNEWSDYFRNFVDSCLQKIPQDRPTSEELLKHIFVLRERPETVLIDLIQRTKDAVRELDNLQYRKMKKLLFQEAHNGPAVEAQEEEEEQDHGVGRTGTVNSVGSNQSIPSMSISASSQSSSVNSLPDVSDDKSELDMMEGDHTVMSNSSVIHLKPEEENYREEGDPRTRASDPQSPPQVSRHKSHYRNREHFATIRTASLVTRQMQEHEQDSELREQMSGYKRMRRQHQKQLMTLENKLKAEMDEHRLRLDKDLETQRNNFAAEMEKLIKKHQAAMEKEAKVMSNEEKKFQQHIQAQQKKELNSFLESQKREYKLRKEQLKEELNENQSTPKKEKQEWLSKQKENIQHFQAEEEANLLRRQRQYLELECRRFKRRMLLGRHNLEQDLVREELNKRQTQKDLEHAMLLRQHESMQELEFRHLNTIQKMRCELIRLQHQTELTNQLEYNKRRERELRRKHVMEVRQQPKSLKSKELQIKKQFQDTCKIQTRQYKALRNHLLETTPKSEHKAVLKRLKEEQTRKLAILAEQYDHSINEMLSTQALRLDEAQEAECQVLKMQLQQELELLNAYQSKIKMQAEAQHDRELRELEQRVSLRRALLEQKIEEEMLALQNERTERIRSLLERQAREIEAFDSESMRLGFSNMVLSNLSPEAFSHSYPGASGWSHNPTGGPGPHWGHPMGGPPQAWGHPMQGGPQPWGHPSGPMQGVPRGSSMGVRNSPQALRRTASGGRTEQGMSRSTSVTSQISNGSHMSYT
Excerpt: as §1

CK1γ2 = CK1γ2 (Homo sapiens, UniProt P78368); test: Kinase profiling CK1γ2; details: for remaining activity at 100 µM: read-out: residual kinase activity, CK1γ2
Chain of CK1γ2 (P78368 whole entry): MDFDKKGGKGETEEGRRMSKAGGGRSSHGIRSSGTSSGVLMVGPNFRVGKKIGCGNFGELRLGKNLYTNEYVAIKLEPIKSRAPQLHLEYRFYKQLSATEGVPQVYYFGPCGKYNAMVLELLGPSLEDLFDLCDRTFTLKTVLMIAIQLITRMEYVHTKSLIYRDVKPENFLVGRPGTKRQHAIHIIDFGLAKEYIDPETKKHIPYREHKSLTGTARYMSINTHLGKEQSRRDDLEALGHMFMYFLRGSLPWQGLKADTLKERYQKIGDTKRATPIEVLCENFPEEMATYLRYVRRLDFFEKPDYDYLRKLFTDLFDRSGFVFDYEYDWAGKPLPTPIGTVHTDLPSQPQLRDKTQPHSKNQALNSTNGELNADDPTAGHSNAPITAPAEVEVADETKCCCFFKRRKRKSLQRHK
Excerpt: as §1

BRSK2 = biological target: T2, BRSK2 (Homo sapiens, UniProt Q8IWQ3); test: Kinase profiling BRSK2; details: for remaining activity at 100 µM: read-out: residual kinase activity, BRSK2
T2 sequence (Q8IWQ3 1-736): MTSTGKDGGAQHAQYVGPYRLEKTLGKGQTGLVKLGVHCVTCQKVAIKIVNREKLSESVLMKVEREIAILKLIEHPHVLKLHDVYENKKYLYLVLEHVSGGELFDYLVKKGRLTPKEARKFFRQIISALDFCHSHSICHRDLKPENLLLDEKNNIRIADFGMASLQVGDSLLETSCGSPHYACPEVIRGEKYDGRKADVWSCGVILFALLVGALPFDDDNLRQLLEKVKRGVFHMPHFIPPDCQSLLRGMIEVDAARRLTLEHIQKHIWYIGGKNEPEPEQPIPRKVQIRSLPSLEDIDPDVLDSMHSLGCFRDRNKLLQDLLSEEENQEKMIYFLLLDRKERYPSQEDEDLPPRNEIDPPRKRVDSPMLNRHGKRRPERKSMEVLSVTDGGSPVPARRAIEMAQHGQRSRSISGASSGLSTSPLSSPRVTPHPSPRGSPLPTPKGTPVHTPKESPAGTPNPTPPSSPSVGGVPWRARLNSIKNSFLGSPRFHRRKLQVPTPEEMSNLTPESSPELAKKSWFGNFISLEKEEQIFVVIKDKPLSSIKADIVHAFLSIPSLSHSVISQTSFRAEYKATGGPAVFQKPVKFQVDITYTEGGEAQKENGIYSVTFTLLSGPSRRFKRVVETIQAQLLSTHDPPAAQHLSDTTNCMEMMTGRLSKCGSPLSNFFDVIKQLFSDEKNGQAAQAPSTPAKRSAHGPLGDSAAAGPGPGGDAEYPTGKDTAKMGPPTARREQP
Excerpt: as §1

ABL = ABL (Homo sapiens, UniProt P00519); test: Kinase profiling ABL; details: for remaining activity at 100 µM: read-out: residual kinase activity, ABL
Chain of ABL (P00519 whole entry, species assumed): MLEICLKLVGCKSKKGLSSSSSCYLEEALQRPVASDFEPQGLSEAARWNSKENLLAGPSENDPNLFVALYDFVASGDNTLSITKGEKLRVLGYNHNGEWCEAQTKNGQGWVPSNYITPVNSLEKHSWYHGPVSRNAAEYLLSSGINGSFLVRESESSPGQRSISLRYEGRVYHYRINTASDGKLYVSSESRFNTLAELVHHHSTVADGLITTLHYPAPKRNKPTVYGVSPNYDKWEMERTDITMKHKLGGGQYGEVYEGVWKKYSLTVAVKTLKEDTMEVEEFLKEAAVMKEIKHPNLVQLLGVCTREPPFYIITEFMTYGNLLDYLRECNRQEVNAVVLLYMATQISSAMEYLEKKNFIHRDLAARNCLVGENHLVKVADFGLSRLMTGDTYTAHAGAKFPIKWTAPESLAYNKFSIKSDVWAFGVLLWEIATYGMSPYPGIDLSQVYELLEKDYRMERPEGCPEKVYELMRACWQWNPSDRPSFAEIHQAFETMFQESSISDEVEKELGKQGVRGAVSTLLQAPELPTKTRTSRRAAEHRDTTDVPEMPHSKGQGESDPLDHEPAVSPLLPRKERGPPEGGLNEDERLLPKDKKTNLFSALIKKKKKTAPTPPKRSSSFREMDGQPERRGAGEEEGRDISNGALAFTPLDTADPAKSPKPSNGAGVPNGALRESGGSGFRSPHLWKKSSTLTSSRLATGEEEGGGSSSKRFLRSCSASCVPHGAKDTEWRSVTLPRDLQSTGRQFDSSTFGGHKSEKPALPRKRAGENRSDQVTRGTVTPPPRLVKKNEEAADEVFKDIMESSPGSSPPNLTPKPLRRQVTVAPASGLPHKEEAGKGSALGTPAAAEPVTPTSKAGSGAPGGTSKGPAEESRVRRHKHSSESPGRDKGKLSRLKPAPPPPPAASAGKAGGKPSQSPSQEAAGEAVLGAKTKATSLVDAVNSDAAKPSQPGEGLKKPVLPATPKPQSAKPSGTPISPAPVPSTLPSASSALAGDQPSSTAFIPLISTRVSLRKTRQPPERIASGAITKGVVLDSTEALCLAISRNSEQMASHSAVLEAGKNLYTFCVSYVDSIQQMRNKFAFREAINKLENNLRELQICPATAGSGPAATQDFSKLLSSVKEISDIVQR
Excerpt: as §1

PAK5 = PAK5 (Homo sapiens, UniProt Q9P286); test: Kinase profiling PAK5; details: for remaining activity at 100 µM: read-out: residual kinase activity, PAK5
Chain of PAK5 (Q9P286 whole entry): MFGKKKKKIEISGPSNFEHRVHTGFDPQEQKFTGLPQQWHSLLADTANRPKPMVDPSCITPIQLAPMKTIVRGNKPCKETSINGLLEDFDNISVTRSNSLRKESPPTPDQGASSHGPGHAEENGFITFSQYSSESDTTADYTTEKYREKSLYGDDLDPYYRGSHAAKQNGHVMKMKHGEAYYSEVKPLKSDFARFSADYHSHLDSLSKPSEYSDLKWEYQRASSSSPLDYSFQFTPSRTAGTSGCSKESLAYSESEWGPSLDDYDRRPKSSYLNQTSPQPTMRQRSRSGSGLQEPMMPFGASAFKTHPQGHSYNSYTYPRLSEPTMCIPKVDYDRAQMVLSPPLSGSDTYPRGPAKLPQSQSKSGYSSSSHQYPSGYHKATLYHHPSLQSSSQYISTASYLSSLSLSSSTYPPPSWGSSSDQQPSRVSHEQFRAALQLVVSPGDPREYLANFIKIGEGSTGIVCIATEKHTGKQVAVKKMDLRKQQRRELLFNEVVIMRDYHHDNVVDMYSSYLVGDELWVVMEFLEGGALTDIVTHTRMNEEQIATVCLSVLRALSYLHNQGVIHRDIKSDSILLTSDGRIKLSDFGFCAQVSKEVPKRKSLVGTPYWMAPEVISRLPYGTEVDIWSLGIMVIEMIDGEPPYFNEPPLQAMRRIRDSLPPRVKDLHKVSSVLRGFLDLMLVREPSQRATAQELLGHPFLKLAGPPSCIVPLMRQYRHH
Excerpt: as §1

CSK = CSK (Homo sapiens, UniProt P41240); test: Kinase profiling CSK; details: for remaining activity at 100 µM: read-out: residual kinase activity, CSK
Chain of CSK (P41240 whole entry, species assumed): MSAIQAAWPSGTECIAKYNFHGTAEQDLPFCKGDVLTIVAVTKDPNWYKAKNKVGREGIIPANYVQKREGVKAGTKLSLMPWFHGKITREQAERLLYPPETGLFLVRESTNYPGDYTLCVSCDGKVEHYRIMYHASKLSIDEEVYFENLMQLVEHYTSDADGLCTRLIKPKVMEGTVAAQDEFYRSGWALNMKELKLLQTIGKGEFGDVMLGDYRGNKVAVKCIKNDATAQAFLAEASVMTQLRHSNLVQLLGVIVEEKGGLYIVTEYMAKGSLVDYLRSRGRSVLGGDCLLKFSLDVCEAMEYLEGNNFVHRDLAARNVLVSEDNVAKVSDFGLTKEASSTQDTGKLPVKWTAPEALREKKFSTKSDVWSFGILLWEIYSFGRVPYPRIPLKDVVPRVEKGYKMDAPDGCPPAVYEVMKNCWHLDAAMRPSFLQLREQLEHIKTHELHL
Excerpt: as §1

TGFBR1 = biological target: T3, TGFBR1 (Homo sapiens, UniProt P36897); test: Kinase profiling TGFBR1; details: for remaining activity at 100 µM: read-out: residual kinase activity, TGFBR1
T3 sequence (P36897 34-503): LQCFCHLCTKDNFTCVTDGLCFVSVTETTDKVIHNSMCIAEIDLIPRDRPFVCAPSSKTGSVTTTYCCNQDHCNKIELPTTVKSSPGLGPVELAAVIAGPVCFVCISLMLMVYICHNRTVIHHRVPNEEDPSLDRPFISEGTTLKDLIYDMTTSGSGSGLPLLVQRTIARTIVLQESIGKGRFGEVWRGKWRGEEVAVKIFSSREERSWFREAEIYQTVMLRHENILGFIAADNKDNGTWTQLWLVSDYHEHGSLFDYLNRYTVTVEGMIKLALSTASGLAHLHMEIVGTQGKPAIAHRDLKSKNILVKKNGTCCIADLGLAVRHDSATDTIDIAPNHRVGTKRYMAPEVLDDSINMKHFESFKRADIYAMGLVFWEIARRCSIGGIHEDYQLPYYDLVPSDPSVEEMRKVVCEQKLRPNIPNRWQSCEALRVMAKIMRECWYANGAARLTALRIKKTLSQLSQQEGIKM
Excerpt: as §1

[1] = 100 micromolar inhibitor concentration, 100 is no change
[2] = 100 micromolar inhibitor, 100 = no change

Chain of MEKK1 (Q13233 whole entry, species assumed): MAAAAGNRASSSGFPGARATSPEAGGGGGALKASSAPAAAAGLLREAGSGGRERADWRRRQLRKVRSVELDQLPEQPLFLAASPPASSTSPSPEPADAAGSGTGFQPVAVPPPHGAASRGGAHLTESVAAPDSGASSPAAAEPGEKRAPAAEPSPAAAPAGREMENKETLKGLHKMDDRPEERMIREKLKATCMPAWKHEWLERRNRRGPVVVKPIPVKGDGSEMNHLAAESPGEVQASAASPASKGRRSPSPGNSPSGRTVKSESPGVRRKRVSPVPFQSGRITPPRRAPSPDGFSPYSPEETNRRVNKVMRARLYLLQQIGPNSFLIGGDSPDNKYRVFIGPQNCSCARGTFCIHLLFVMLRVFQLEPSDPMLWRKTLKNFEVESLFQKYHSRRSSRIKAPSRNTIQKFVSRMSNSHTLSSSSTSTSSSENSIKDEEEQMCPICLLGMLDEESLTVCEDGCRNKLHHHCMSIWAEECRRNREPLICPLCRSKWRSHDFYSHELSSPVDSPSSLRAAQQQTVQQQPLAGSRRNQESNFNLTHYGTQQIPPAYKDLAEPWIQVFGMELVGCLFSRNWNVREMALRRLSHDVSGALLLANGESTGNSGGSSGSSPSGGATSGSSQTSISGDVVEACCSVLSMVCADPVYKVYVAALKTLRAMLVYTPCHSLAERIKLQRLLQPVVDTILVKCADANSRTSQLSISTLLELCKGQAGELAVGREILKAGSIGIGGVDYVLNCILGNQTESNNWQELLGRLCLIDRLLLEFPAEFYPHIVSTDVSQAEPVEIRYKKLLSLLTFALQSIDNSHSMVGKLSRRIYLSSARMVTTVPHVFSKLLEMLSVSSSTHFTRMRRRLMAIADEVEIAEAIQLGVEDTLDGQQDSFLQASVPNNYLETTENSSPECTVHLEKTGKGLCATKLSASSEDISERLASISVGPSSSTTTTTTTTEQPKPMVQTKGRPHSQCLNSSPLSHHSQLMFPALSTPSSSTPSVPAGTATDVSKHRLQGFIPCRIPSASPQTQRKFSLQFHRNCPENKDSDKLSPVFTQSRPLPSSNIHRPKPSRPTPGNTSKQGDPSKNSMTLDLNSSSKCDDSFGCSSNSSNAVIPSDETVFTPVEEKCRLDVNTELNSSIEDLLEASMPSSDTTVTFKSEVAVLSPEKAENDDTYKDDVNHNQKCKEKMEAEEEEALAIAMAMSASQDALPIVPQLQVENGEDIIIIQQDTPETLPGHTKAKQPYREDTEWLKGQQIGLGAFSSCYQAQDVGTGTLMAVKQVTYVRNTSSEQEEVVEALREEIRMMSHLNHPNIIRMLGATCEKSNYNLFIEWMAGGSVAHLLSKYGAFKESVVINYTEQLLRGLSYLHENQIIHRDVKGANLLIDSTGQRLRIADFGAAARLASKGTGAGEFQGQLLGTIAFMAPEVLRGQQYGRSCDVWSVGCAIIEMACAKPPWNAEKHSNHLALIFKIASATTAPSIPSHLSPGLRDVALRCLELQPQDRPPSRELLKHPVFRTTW

Structure (SMILES)	remaining activity at 100 µM (MEKK1; [1]) [%]	remaining activity at 100 µM (TAO1; [1]) [%]	remaining activity at 100 µM (CK1γ2; [1]) [%]	remaining activity at 100 µM (BRSK2; [1]) [%]	remaining activity at 100 µM (ABL; [1]) [%]	remaining activity at 100 µM (PAK5; [1]) [%]	remaining activity at 100 µM (CSK; [1]) [%]	residual kinase activity, MEKK1 (MEKK1; [1])	residual kinase activity, TAO1 (TAO1; [1])	residual kinase activity, CK1γ2 (CK1γ2; [1])	residual kinase activity, BRSK2 (BRSK2; [1])	residual kinase activity, ABL (ABL; [1])	residual kinase activity, PAK5 (PAK5; [1])	residual kinase activity, TGFBR1 (TGFBR1; [1])	residual kinase activity, CSK (CSK; [1])	also measured
CC(=O)Nc1nc2cc(O)ccc2s1 [Compound 01-66, N-(5-hydroxybenzo[d]thiazol-2-yl)acetamide]	–	–	–	–	–	–	–	–	–	–	–	–	–	–	–	remaining activity at 100 µM (MEKK1): 94%; remaining activity at 100 µM (TAO1): 30%; remaining activity at 100 µM (CK1γ2): 6%; remaining activity at 100 µM (BRSK2): 56%; remaining activity at 100 µM (ABL): 29%; remaining activity at 100 µM (PAK5): 72%; remaining activity at 100 µM (CSK): 92%
CC(=O)Nc1nc2ccc(O)cc2s1 [Compound 01-71]	96	29	10	22	17	85	78	–	–	–	–	–	–	–	–	–
CC(=O)Nc1nc2ccc(C(F)(F)F)cc2s1 [Compound 01-90]	90	71	59	64	31	82	61	–	–	–	–	–	–	–	–	–
CC(=O)Nc1nc2ccc(C#N)cc2s1 [Compound 01-94]	94	46	18	67	31	70	83	–	–	–	–	–	–	–	–	–
CC(=O)Nc1cccc(NC(=O)c2nc3ccc(O)cc3s2)c1 [Compound 03-07, N-(3-acetamidophenyl)-6-hydroxybenzo[d]thiazole-2-carboxamide]	–	–	–	–	–	–	–	–	–	–	–	–	–	–	–	remaining activity at 100 µM (MEKK1; [2]): 115%; remaining activity at 100 µM (TAO1; [2]): 84%; remaining activity at 100 µM (CK1γ2; [2]): 77%; remaining activity at 100 µM (BRSK2; [2]): 66%; remaining activity at 100 µM (ABL; [2]): 105%; remaining activity at 100 µM (PAK5; [2]): 82%; remaining activity at 100 µM (TGFBR1; [2]): 113%; remaining activity at 100 µM (CSK; [2]): 105%
O=C(Nc1nc2cc(O)ccc2s1)c1ccncc1 [Compound 03-11]	–	–	–	–	–	–	–	106	77	81	81	99	92	107	94	–
O=C(Nc1nc2ccc(O)cc2s1)c1ccccn1 [Compound 03-12]	–	–	–	–	–	–	–	127	74	57	79	113	94	117	101	–
O=C(Nc1nc2cc(O)ccc2s1)c1ccccn1 [Compound 03-13]	–	–	–	–	–	–	–	114	80	83	80	71	82	109	95	–
COc1ccc2sc(NC(C)=O)nc2c1 [Compound 03-21]	113	72	6	95	111	110	104	–	–	–	–	–	–	–	–	remaining activity at 100 µM (TGFBR1; [1]): 124%
CC(=O)Nc1nc2ccccc2s1 [Compound 03-32]	–	–	–	–	–	–	–	93	73	41	91	86	74	92	83	–
O=C(Nc1nc2cc(O)ccc2s1)c1cccnc1 [Compound 03-33]	–	–	–	–	–	–	–	107	87	25	82	105	109	88	88	–
O=C(Nc1nc2ccc(O)cc2s1)c1ccccc1 [Compound 03-60]	–	–	–	–	–	–	–	105	62	3	34	54	70	93	69	–
CC(=O)Nc1nc2cc(C(F)(F)F)ccc2s1 [Compound 03-73]	111	88	79	98	109	85	91	–	–	–	–	–	–	–	–	remaining activity at 100 µM (TGFBR1; [1]): 118%
CC(=O)Nc1nc2cc(C)ccc2s1 [Compound 03-76]	–	–	–	–	–	–	–	107	76	54	79	82	107	98	101	–
